Data from the supplement of paper PMC10307832.

Key:
Test in all cases: relative viability (nuclei count vs DMSO), 5 days (fraction); higher = more cells survive
Metformin + Pictilisib = compound: CN(C)C(=N)NC(=N)N [Metformin] + CS(=O)(=O)N1CCN(Cc2cc3nc(-c4cccc5[nH]ncc45)nc(N4CCOCC4)c3s2)CC1 [Pictilisib] (partner 1 µM)
How it was run: (§1)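 Lung cancer cell lines in 1536-well plates got either a single drug or a fixed anchor-drug dose together with five library-drug doses (not always all listed) in √10 steps, by pin tool, on the day after seeding. Nuclei were counted after 5 days, and relative viability is the treated-to-vehicle ratio of nuclei counts. Values are medians of duplicate plates.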

Apatinib + Trametinib = compound: N#CC1(c2ccc(NC(=O)c3cccnc3NCc3ccncc3)cc2)CCCC1 [Apatinib] + CC(=O)Nc1cccc(-n2c(=O)n(C3CC3)c(=O)c3c(Nc4ccc(I)cc4F)n(C)c(=O)c(C)c32)c1 [Trametinib] (partner 0.02 µM)
How it was run: as §1

Metformin + Decitabine = compound: CN(C)C(=N)NC(=N)N [Metformin] + Nc1ncn([C@H]2C[C@H](O)[C@@H](CO)O2)c(=O)n1 [Decitabine] (partner 2 µM)
How it was run: as §1

Apatinib + AZD7762 = compound: N#CC1(c2ccc(NC(=O)c3cccnc3NCc3ccncc3)cc2)CCCC1 [Apatinib] + NC(=O)Nc1cc(-c2cccc(F)c2)sc1C(=O)N[C@H]1CCCNC1 [AZD7762] (partner 0.2 µM)
How it was run: as §1

Cell Line | relative viability (Metformin + Pictilisib; first compound 10 µM) | relative viability (Metformin + Pictilisib; first compound 31.62 µM) | relative viability (Metformin + Pictilisib; first compound 100 µM) | relative viability (Metformin + Pictilisib; first compound 316.23 µM) | relative viability (Metformin + Pictilisib; first compound 1000 µM) | relative viability (Apatinib + Trametinib; first compound 0.08 µM) | relative viability (Apatinib + Trametinib; first compound 0.253 µM) | relative viability (Apatinib + Trametinib; first compound 0.8 µM) | relative viability (Apatinib + Trametinib; first compound 2.53 µM) | relative viability (Apatinib + Trametinib; first compound 8 µM) | relative viability (Metformin + Decitabine; first compound 10 µM) | relative viability (Metformin + Decitabine; first compound 31.62 µM) | relative viability (Metformin + Decitabine; first compound 100 µM) | relative viability (Metformin + Decitabine; first compound 316.23 µM) | relative viability (Metformin + Decitabine; first compound 1000 µM) | relative viability (Apatinib + AZD7762; first compound 0.253 µM) | relative viability (Apatinib + AZD7762; first compound 0.8 µM) | relative viability (Apatinib + AZD7762; first compound 2.53 µM) | relative viability (Apatinib + AZD7762; first compound 8 µM) | relative viability (Apatinib + AZD7762; first compound 0.08 µM)
NCI-H1299 | 0.834 | 0.98 | 0.9 | 0.645 | 0.479 |  |  |  |  |  |  |  |  |  |  |  |  |  |  | 
NCI-H2228 | 0.306 | 0.294 |  | 0.227 | 0.448 | 0.405 | 0.568 | 0.646 | 0.416 | 0.549 |  |  |  |  |  |  |  |  |  | 
NCI-H2009 | 0.795 | 0.922 | 0.846 | 0.779 | 0.763 | 0.341 | 0.285 | 0.31 | 0.25 | 0.229 | 0.367 | 0.366 | 0.351 | 0.401 | 0.424 |  |  |  |  | 
ABC-1 |  | 0.76 | 0.787 | 0.643 | 0.265 |  |  |  |  |  |  | 1.12 | 1.2 | 1.54 | 0.548 | 0.687 | 0.882 | 0.767 | 0.727 | 
NCI-H2023 |  | 0.269 | 0.262 |  | 0.252 | 0.635 | 0.647 | 0.492 | 0.489 | 0.399 | 0.224 | 0.223 | 0.203 | 0.207 | 0.186 |  |  |  |  | 
A549 | 0.428 | 0.517 | 0.553 | 0.464 | 0.0878 |  |  |  |  |  | 0.182 | 0.291 | 0.179 | 0.198 | 0.209 |  |  |  |  | 
NCI-H1648 |  |  |  |  |  | 0.466 | 0.467 | 0.39 | 0.537 | 0.335 |  | 0.512 | 0.555 | 0.535 | 0.656 | 0.667 | 0.612 | 0.567 | 0.601 | 0.937
NCI-H661 | 0.406 | 0.464 | 0.485 | 0.552 | 0.518 | 0.606 | 0.594 | 0.571 | 0.532 | 0.463 | 0.562 | 0.61 | 0.587 | 0.579 | 0.602 |  |  |  |  | 
SK-LU-1 | 0.543 | 0.554 | 0.674 | 0.685 | 0.719 | 0.498 | 0.541 | 0.545 | 0.495 | 0.446 | 0.567 | 0.571 | 0.64 | 0.507 | 0.615 |  |  |  |  | 
CAL-12T | 0.423 | 0.511 | 0.527 | 0.415 | 0.518 | 0.385 | 0.337 | 0.289 | 0.313 | 0.249 |  |  |  |  |  | 0.53 | 0.603 | 0.51 | 0.468 | 0.618
SW 900 |  |  |  |  |  | 0.757 | 0.801 | 0.772 | 0.623 | 0.642 | 0.41 | 0.389 |  | 0.412 | 0.492 | 0.587 | 0.563 | 0.374 | 0.401 | 0.656
COR-L 105 | 0.401 | 0.488 | 0.478 | 0.463 | 0.333 | 0.476 | 0.418 | 0.371 | 0.436 | 0.431 | 0.588 | 0.64 | 0.695 | 0.719 | 0.697 |  |  |  |  | 
NCI-H520 | 0.302 | 0.31 | 0.28 | 0.258 | 0.361 | 0.666 | 0.66 | 0.787 | 0.485 | 0.325 | 0.463 | 0.447 | 0.461 | 0.423 | 0.485 |  |  |  |  | 
UMC-11 | 0.864 | 0.972 | 0.806 | 0.716 | 0.902 | 0.816 | 0.686 | 0.631 | 0.668 | 0.647 | 0.573 | 0.743 | 0.741 | 0.49 | 0.437 |  |  |  |  | 
NCI-H2342 |  |  |  |  |  | 0.918 | 0.777 | 0.916 | 0.846 | 0.834 |  | 0.812 | 0.708 | 0.714 | 0.693 | 0.464 | 0.536 | 0.385 | 0.353 | 0.454
NCI-H1703 | 0.291 | 0.309 | 0.29 | 0.291 | 0.226 |  |  |  |  |  |  |  |  |  |  | 0.127 | 0.123 | 0.0918 | 0.127 | 0.147
Calu-6 | 0.733 | 0.886 | 0.769 | 0.531 | 0.413 |  |  |  |  |  |  |  |  |  |  |  |  |  |  | 
EBC-1 | 0.508 | 0.444 | 0.467 | 0.306 | 0.313 |  |  |  |  |  |  |  |  |  |  |  |  |  |  | 
IA-LM | 0.337 | 0.462 | 0.41 | 0.38 | 0.303 |  |  |  |  |  |  |  |  |  |  |  |  |  |  | 
COR-L23 | 0.756 | 0.886 | 0.754 | 0.707 | 0.759 | 0.721 | 0.666 | 0.574 | 0.466 | 0.376 | 0.456 | 0.514 | 0.365 | 0.388 | 0.435 |  |  |  |  | 
NCI-H1563 | 0.605 | 0.651 | 0.62 | 0.624 | 0.646 |  |  |  |  |  |  |  |  |  |  |  |  |  |  | 
NCI-H1650 | 0.791 | 0.702 | 0.721 | 0.607 | 0.504 | 0.607 | 0.659 | 0.395 | 0.515 | 0.482 | 0.326 | 0.343 | 0.317 | 0.402 | 0.389 |  |  |  |  | 
